The record followed here is US20190263799A1, “1H-IMIDAZO[4,5-B]PYRIDINYL AND 2-OXO-2,3-DIHYDRO-1H-IMIDAZO[4,5-B]PYRIDINYL HETEROCYCLIC BET BROMODOMAIN INHIBITORS” (ZENITH EPIGENETICS LTD., priority 2015, published 2019).

Test [1] concerns the target T1, BRD4(1) (Homo sapiens, UniProt O60885).
T1 construct: N-terminally His-tagged bromodomains (BRD4(1) at 20 nM and BRD4(2) at 100 nM); made in house; host or cells: E. coli BL21(DE3)
Put plainly: Inhibition of tetra-acetylated histone H4 binding to individual BET bromodomains (AlphaScreen). The note with it: His-tagged BRD4(1) 20 nM, biotinylated tetra-acetylated histone H4 peptide, 30 min incubation; read-out: FRET activity BRD4(1). As for the experimental part: Proteins were cloned and overexpressed with a N-terminal 6×His tag, then purified by nickel affinity followed by size exclusion chromatography. Briefly, E. coli BL21(DE3) cells were transformed with a recombinant expression vector encoding N-terminally Nickel affinity tagged bromodomains from Brd2, Brd3, Brd4. Cell cultures were incubated at 37° C. with shaking to the appropriate density and induced overnight with IPTG. The supernatant of lysed cells was loaded onto Ni-IDA column for purification. Eluted protein was pooled, concentrated and further purified by size exclusion chromatography. Fractions representing monomeric protein were pooled, concentrated, aliquoted, and frozen at −80° C. for use in subsequent experiments.
Binding of tetra-acetylated histone H4 peptide (Millipore) and BET bromodomains was confirmed by Amplified Luminescent Proximity Homogenous Assay (AlphaScreen). N-terminally His-tagged bromodomains (BRD4(1) at 20 nM and BRD4(2) at 100 nM) and biotinylated tetra-acetylated histone H4 (10-25 nM) were incubated in the presence of nickel chelate acceptor beads and streptavidin donor beads (PerkinAlmer, 6760000K) added to a final concentration of 2 μg/mL under green light in a white 96 well microtiter plate (Greiner). For inhibition assays, serially diluted compounds were added to the reaction mixtures in a 0.1% final concentrations of DMSO. Final buffer concentrations were 50 mM HEPES, 100 mM NaCl and 0.1% BSA buffer, pH 7.4 and optimized to 30 min incubation time. Assay plates were read at 570 nm on a Synergy H4 Plate Reader (Biotek). IC50 values were determined from a dose response curve.
(Alpha assays give light when donor and acceptor beads are brought close together.)

Test [2] has as its system MV4-11 cells. Put plainly: Inhibition of cell proliferation in cancer cell lines (MV4-11, CellTiter Aqueous One). The note with it: Homo sapiens, read-out: Proliferation activity. It counts as cell-based. As to the method:
MV4-11 cells (CRL-9591) were plated at a density of 5×10^4 cells per well in 96 well flat bottom plates and treated with increasing concentrations of test compound or DMSO (0.1%) in IMDM media containing 10% FBS and penicillin/streptomycin. Triplicate wells were used for each concentration and a well containing only media was used as a control. Plates were incubated at 37° C., 5% CO2 for 72 h before adding 20 μL of the CellTiter Aqueous One Solution (Promega) to each well and incubating at 37° C., 5% CO2 for an additional 3-4 h. The absorbance was read at 490 nm in a spectrophotometer and the percentage of cell titer relative to DMSO-treated cells was calculated after correcting for background by subtracting the blank well's signal. IC50 values were calculated using the GraphPad Prism software.

Test [3] deals with cMYC. Put plainly: Inhibition of cMYC expression in cancer cell lines (MV4-11, real-time PCR). It counts as cell-based. Particulars: Homo sapiens, read-out: Myc activity. As to the method: MV4-11 cells (CRL-9591) were plated at a density of 2.5×10^4 cells per well in 96 well U-bottom plates and treated with increasing concentrations of test compound or DMSO (0.1%) in IMDM media containing 10% FBS and penicillin/streptomycin, and incubated for 3 h at 37° C. Triplicate wells were used for each concentration. Cells were pelleted by centrifugation and harvested using the mRNA Catcher PLUS kit according to manufacturer's instructions. The eluted mRNA isolated was then used in a one-step quantitative real-time PCR reaction, using components of the RNA UltraSense™ One-Step Kit (Life Technologies) together with Applied Biosystems TaqMan® primer-probes for cMYC and Cyclophilin. Real-time PCR plates were run on a ViiA™7 real time PCR machine (Applied Biosystems), data were analyzed, normalizing the Ct values for cMYC to an internal control, prior to determining the fold expression of each sample, relative to the control.
(In general: Quantitative PCR measures a nucleic acid by following its amplification.)

[4] abbreviates: MV4-11 cells, 3 h incubation, cMYC mRNA.

Read-outs that look alike come from different tables or passages of the source.

As for `COC(=O)N(C)c1cnc2nc(N3CCCC3)n(Cc3ccccc3)c2c1` [Example 30, Methyl (1-benzyl-2-(pyrrolidin-1-yl)-1H-imidazo[4,5-b]pyridin-6-yl)(methyl) carbamate], the IC50 is no more than 300 nM in test [1]; 300 to 3000 nM in test [2] (MV4-11, 72 h); 300 to 3000 nM in test [3] (MV4-11, 3 h).
For the compound `CNC(=O)N(C)c1cnc2nc(N3CCCC3)n(Cc3ccccc3)c2c1` [Example 31, 1-(1-Benzyl-2-(pyrrolidin-1-yl)-1H-imidazo[4,5-b]pyridin-6-yl)-1,3-dimethylurea], the IC50 was in the range of 300 to 3000 nM in test [1]; 3000 to 30000 nM in test [2] (MV4-11 cells, 72 h incubation); 300 to 3000 nM in test [3] (setting [4]).
For the compound `CN(C(=O)CO)c1cnc2nc(N3CCCC3)n(Cc3ccccc3)c2c1` [Example 32, N-(1-Benzyl-2-(pyrrolidin-1-yl)-1H-imidazo[4,5-b]pyridin-6-yl)-2-hydroxy-N-methylacetamide], the IC50 in test [1] fell in the range of 300 to 3000 nM; in test [2] (MV4-11 cells, 72 h incubation), 3000 to 30000 nM; in test [3] (setting [4]), 3000 to 30000 nM.
Turning to `CC(C)C(=O)N(C)c1cnc2nc(N3CCCC3)n(Cc3ccccc3)c2c1` [Example 33, N-(1-Benzyl-2-(pyrrolidin-1-yl)-1H-imidazo[4,5-b]pyridin-6-yl)-N-methylisobutyramide], the IC50 in test [1] fell in the range of 300 to 3000 nM; in test [2] (MV4-11 cells, 72 h incubation) it was 3000 to 30000 nM; in test [3] (setting [4]) it was 300 to 3000 nM.
With `C[C@H](O)C(=O)N(C)c1cnc2nc(N3CCCC3)n(Cc3ccccc3)c2c1` [Example 34, (S)—N-(1-Benzyl-2-(pyrrolidin-1-yl)-1H-imidazo[4,5-b]pyridin-6-yl)-2-hydroxy-N-methylpropanamide], the IC50 in test [1] is no more than 300 nM; in test [2] (MV4-11 cells, 72 h incubation), 300 to 3000 nM; in test [3] (setting [4]), 300 to 3000 nM.
For the compound `CN(C)C(=O)N(C)c1cnc2nc(N3CCCC3)n(Cc3ccccc3)c2c1` [Example 35, 1-(1-Benzyl-2-(pyrrolidin-1-yl)-1H-imidazo[4,5-b]pyridin-6-yl)-1,3,3-trimethylurea], the IC50 in test [1] is 300 to 3000 nM; in test [2] (MV4-11, 72 h), 3000 to 30000 nM; in test [3] (MV4-11, 3 h) it was 3000 to 30000 nM.
On to `CCOC(=O)N(C)c1cnc2nc(N3CCCC3)n(Cc3ccccc3)c2c1` [Example 36, Ethyl (1-benzyl-2-(pyrrolidin-1-yl)-1H-imidazo[4,5-b]pyridin-6-yl)(methyl)carbamate], for which the IC50 in test [1] is no more than 300 nM; in test [2] (MV4-11, 72 h), 300 to 3000 nM; in test [3] (MV4-11, 3 h) it was 300 to 3000 nM.
On to `CC(C)OC(=O)N(C)c1cnc2nc(N3CCCC3)n(Cc3ccccc3)c2c1` [Example 37, Isopropyl (1-benzyl-2-(pyrrolidin-1-yl)-1H-imidazo[4,5-b]pyridin-6-yl)(methyl)carbamate], for which the IC50 in test [1] is 300 to 3000 nM; in test [2] (MV4-11, 72 h), 3000 to 30000 nM; in test [3] (MV4-11, 3 h), 300 to 3000 nM.
With `C=CC(=O)N(C)c1cnc2nc(N3CC[C@H](N(C)C)C3)n(Cc3ccccc3)c2c1` [Example 38, (S)—N-(1-Benzyl-2-(3-(dimethylamino)pyrrolidin-1-yl)-1H-imidazo[4,5-b]pyridin-6-yl)-N-methylacrylamide], the IC50 in test [1] was no more than 300 nM; in test [2] (MV4-11 cells, 72 h incubation), 300 to 3000 nM; in test [3] (setting [4]), 300 to 3000 nM.
For the compound `C=CC(=O)N(C)c1cnc2nc(N3CC[C@@H](N(C)C)C3)n(Cc3ccccc3)c2c1` [Example 39, (R)—N-(1-Benzyl-2-(3-(dimethylamino)pyrrolidin-1-yl)-1H-imidazo[4,5-b]pyridin-6-yl)-N-methylacrylamide], the IC50 in test [1] is no more than 300 nM; in test [2] (MV4-11 cells, 72 h incubation), 300 to 3000 nM; in test [3] (setting [4]), 300 to 3000 nM.
Regarding `C=CC(=O)N(C)c1cnc2nc(NC3CCN(C)CC3)n(Cc3ccccc3)c2c1` [Example 40, N-(1-Benzyl-2-((1-methylpiperidin-4-yl)amino)-1H-imidazo[4,5-b]pyridin-6-yl)-N-methylacrylamide], the IC50 in test [1] was no more than 300 nM; in test [2] (MV4-11, 72 h), 3000 to 30000 nM; in test [3] (MV4-11, 3 h) it was 3000 to 30000 nM.
`C=CC(=O)N(C)c1cnc2nc(N3CC[C@@H](O)C3)n(Cc3ccccc3)c2c1` [Example 41, (R)—N-(1-Benzyl-2-(3-hydroxypyrrolidin-1-yl)-1H-imidazo[4,5-b]pyridin-6-yl)-N-methylacrylamide]: the IC50 in test [1] was no more than 300 nM; in test [2] (MV4-11, 72 h) it was 3000 to 30000 nM; in test [3] (MV4-11, 3 h) it was 3000 to 30000 nM.
In the case of `C=CC(=O)N(C)c1cnc2nc(N3CC(O)C3)n(Cc3ccccc3)c2c1` [Example 42, N-(1-Benzyl-2-(3-hydroxyazetidin-1-yl)-1H-imidazo[4,5-b]pyridin-6-yl)-N-methylacrylamide], the IC50 in test [1] is no more than 300 nM; in test [2] (MV4-11, 72 h) it was 3000 to 30000 nM; in test [3] (MV4-11, 3 h) it was 3000 to 30000 nM.
In the case of `C=CC(=O)N(C)c1cnc2nc(N3CC[C@H](NC(C)=O)C3)n(Cc3ccccc3)c2c1` [Example 43, (S)—N-(2-(3-Acetamidopyrrolidin-1-yl)-1-benzyl-1H-imidazo[4,5-b]pyridin-6-yl)-N-methylacrylamide], the IC50 in test [1] was no more than 300 nM; in test [2] (MV4-11 cells, 72 h incubation), 3000 to 30000 nM; in test [3] (setting [4]), 3000 to 30000 nM.
As for `C=CC(=O)N(C)c1cnc2nc(N3CC[C@@H](NC(C)=O)C3)n(Cc3ccccc3)c2c1` [Example 44, (R)—N-(2-(3-Acetamidopyrrolidin-1-yl)-1-benzyl-1H-imidazo[4,5-b]pyridin-6-yl)-N-methylacrylamide], the IC50 was no more than 300 nM in test [1]; 3000 to 30000 nM in test [2] (MV4-11 cells, 72 h incubation); 300 to 3000 nM in test [3] (setting [4]).
In the case of `C=CC(=O)N(C)c1cnc2nc(N3CC[C@@H](CO)C3)n(Cc3ccccc3)c2c1` [Example 45, (R)—N-(1-Benzyl-2-(3-(hydroxymethyl)pyrrolidin-1-yl)-1H-imidazo[4,5-b]pyridin-6-yl)-N-methylacrylamide], the IC50 in test [1] is no more than 300 nM; in test [2] (MV4-11 cells, 72 h incubation), 300 to 3000 nM; in test [3] (setting [4]), 300 to 3000 nM.
For `C=CC(=O)N(C)c1cnc2nc(N3CC[C@H](O)C3)n(Cc3ccccc3)c2c1` [Example 46, (S)—N-(1-Benzyl-2-(3-hydroxypyrrolidin-1-yl)-1H-imidazo[4,5-b]pyridin-6-yl)-N-methylacrylamide], the IC50 was no more than 300 nM in test [1]; 300 to 3000 nM in test [2] (MV4-11 cells, 72 h incubation); 300 to 3000 nM in test [3] (setting [4]).
As to `C=CC(=O)N(C)c1cnc2nc(N3CC(N(C)C)C3)n(Cc3ccccc3)c2c1` [Example 47, N-(1-Benzyl-2-(3-(dimethylamino)azetidin-1-yl)-1H-imidazo[4,5-b]pyridin-6-yl)-N-methylacrylamide], the IC50 in test [1] was no more than 300 nM; in test [2] (MV4-11 cells, 72 h incubation) it was 3000 to 30000 nM; in test [3] (setting [4]) it was 300 to 3000 nM.
For the compound `C=CC(=O)N(C)c1cnc2nc(N3Cc4cnn(C)c4C3)n(Cc3ccccc3)c2c1` [Example 48, N-(1-Benzyl-2-(1-methylpyrrolo[3,4-c]pyrazol-5(1H,4H,6H)-yl)-1H-imidazo[4,5-b]pyridin-6-yl)-N-methylacrylamide], the IC50 is no more than 300 nM in test [1]; 300 to 3000 nM in test [2] (MV4-11 cells, 72 h incubation); 300 to 3000 nM in test [3] (setting [4]).
